Experimental data published in patent publication US11208427B2, “Dicaffeoyl spermidine derivative glycosides and use thereof” (Jinan University, priority 2016, dated 2021).
Marks after values point to notes of the source that are not given here.

Legend:
Cytotoxicity assay (MTT) = assay type: cell-based; conditions: human, HEp-2 cells
Procedure: (§1) 1) HEp-2 cells were seeded in 96-well cell culture plates at 100 μL/well and the cell density was 2.5×10^5/mL. The cells were cultured in a 37° C., 5% CO2 incubator and grown into a cell single layer over about 20 h.
(§2) 2) The culture fluid in the 96-well plate was discarded and the sample to be tested was half diluted into different concentrations by using maintenance solution. For each dilution, 3 replicate wells were set at 100 μL/well, and cell control wells were also set at the same time. Then they were placed in the incubator to continue the culture.
(§3) 3) The cytopathic effect caused by sample toxicity was observed every day. After 72 hours, the culture solution was discarded, and according to the MTT method, 30 μL of 5 mg/mL MTT solution was added into each well. They were placed in the incubator to continue the incubation for 4 h in dark.

HEp-2 cells = test: Cytotoxicity assay (MTT); assay type: cell-based; conditions: 72 hours
Procedure: as §1, §2, §3

[1] = test system: respiratory syncytial virus (RSV); test: microbe, parasite or virus in culture; assay type: cell-based; conditions: for SI = CC50/IC50: RSV, HEp-2 cells; for IC50: RSV in HEp-2 cells, CPE, 60-72 hours
Procedure: as §1
2) The culture fluid in the 96-well plate was discarded and the sample to be tested was half diluted by using maintenance solution with the starting concentration of the monomeric compound being 50 μM, and 50 μL of sample and 50 μL of 100×TCID50 of virus dilution being added into each well. The positive control drug Ribavirin group, virus control group and cell control group were set and placed in a 37° C., 5% CO2 incubator for culture.
3) The culture was continued for 60-72 hours, and the viral lesions in each group were recorded when the lesions were completely developed in the virus control group.
4) The virus-induced cytopathic effect was recorded as follows: no cellular lesion was recorded as “−”, 0 to 25% cellular lesions was recorded as “+”, 25% to 50% cellular lesion was recorded as “++”, 50%˜75% of cellular lesion was recorded as “+++”, and 75% to 100% of cellular lesion was recorded as “++++”. The sample concentration corresponding to the “++” lesion level is the half inhibitory concentration IC50 of the sample against the virus.
5) Three replicates were performed independently for each experiment.

[2] = oxygen radical absorbance capacity (ORAC) experiment; conditions: relative to Trolox; AAPH, fluorescein
Procedure: The antioxidant activity of the compounds was evaluated by using the oxygen radical absorbance capacity (ORAC) experiment. The detailed experimental procedure is as follows. 0.248 g of AAPH (2,2′-azobisisobutylamidine dihydrochloride) was added to a 50 mL phosphate buffer system to formulate a 18.3 mM AAPH stock solution. 20 μL of phosphate buffer, 20 μL solution of sample to be tested or standard substance Trolox (concentration of 6.25 μM) and 20 μL of fluorescent substance of disodium fluorescein (FL, concentration of 630 nM) were added to the wells of a 96-well plate in order. Then, 140 μL of AAPH (concentration of 18.3 mM) was quickly added to the wells of the 96-well plate, which was immediately placed in a GENios […] microplate reader manufactured by Tecan, Switzerland, the excitation wavelength was set as 485 nm and the emission wavelength was set as 527 nm. The fluorescence intensity was measured every 2 minutes and recorded for a total of 100 min.
The antioxidant capacity of the active substance is calculated as follows: Relative ORAC value=(AUCsample−AUCblank)/(AUCtrolox−AUCblank). Wherein, AUCsample refers to the integral area under the fluorescence decay curve of the test sample, AUCtrolox refers to the integral area under the fluorescence decay curve of the standard substance Trolox, and AUCblank refers to the integral area under the fluorescence decay curve when the test sample or the standard substance Trolox is not added.

[3] = test system: Senile dementia fruit fly (Aβ42; P35*H29.3); test: learning and memory (olfactory short-term memory, T-Maze) of Senile dementia fruit fly; assay type: in vivo; conditions: performance index, 100 μM in feed, n = 6
From the text: W^1118 (isoCJ1), as a background fruit fly of control group in the experiment, was abbreviated as “2U”. The fruit flies that successfully introduced with the pathogenic Aβ42 protein were (UAS-Aβ42; abbreviated as “H29.3”). This strain of fruit flies was hybridized with the fruit fly expressing the Gal4 promoter in whole brain, and the fruit fly strain carrying elav-GAL4^c155 (P35) and Aβ42 was obtained.
Three groups of drug-free control of healthy fruit fly, drug-free control of disease fruit fly, and dose disease fruit fly were set in the experiment.
All parents of tested fruit flies were housed and propagated at a constant temperature of 24° C. and a humidity of 42% RH (Relative humidity). On the first day after the emergence of the fruit flies, the fruit flies of control group and disease group, as well as the fruit flies to be administered were anesthetized with carbon dioxide, and then the fruit flies of the correct characters were selected into the glass tube containing food. During the dosing period, all tested fruit flies were kept in an incubator with a constant temperature of 28° C. and a constant humidity of 42% to ensure the drug taking efficiency of the fruit flies. Each day the fruit flies were administered for 4 hours, and the drug was administered from the second day after the fruit flies were selected until the 8th day.
The drugs administered were prepared on the second day after the fruit fly selection, and were administered to the fruit flies on the day of preparation. The drugs were dissolved by 100% DMSO to a concentration of 10 mM. When preparing the working solution, the 10 mM stock solution was diluted to 100 μM with 4% sucrose. In addition, the fruit flies of control group were fed sucrose water containing 1% DMSO. For each Performance Index, two tubes of fruit fly groups are required, each tube containing about 100 fruit flies.
Experiments were conducted in a light proof behavior room with constant temperature of 25° C., constant humidity of 70%. The method can be found in references^[1-3].
1) During the training stage, about 100 flies were loaded into a training tube provided with a copper mesh cross electrode. Two kinds of odors of octanol (OCT) and methylcyclohexanol (MCH) were successively introduced for each 60 s with an intervals for 45 s of fresh air. 60 V pulsed electrical shock stimulation (US, pulse duration 1.5 s, interval 3.5 s) was applied to the fruit flies while introducing the 1st odor. No electrical shock was applied when the second odor (CS−) was introduced. Thereby one training cycle was completed.
2) In the transient memory (learning) ability test, the fruit flies that completed one training cycle were immediately transferred to the selection point of T-Maze, while CS+ and CS− were introduced from the opposite two directions. After two minutes of selection, the fruit flies on both sides were collected separately and counted after anesthesia or sacrifice. The calculation formula for the performance index (PI) is as follows: PI=[(CS−)−(CS+)]/[(CS−)+(CS+)]×100.
Using OCT and MCH as CS+ for training and testing respectively, the average of the two PIs obtained was used as PI for one experiment. […] When performing the activity test, the short-term memory deficit tests for the olfactory sensation of the non-administered healthy flies with the same genetic background (2U*H29.3), non-administered Senile dementia disease flies (P35*H29.3), and test drug administered Senile dementia disease flies were also conducted, and their total learning and memory performance indexes (PIs) was calculated respectively. The learning and memory performance index of the test drug administered Senile dementia disease flies was compared with the performance index of the non-administered healthy flies with the same genetic background (2U*H29.3), and the performance index of the non-administered Senile dementia disease flies (P35*H29.3), to evaluate effect of the test drugs against Senile dementia. […]

## NC(=O)c1ncn([C@@H]2O[C@H](CO)[C@@H](O)[C@H]2O)n1 [Ribavirin, reference compound]
Cytotoxicity assay (MTT)
  CC50 at 72 h: 37.9 ± 3.82 µM
HEp-2 cells
  MNCC: 15.32 ± 4.31 µM
[1]
  SI = CC50/IC50: 15
[1]; human respiratory syncytial virus
  IC50: 2.5 µM

## O=C(/C=C/c1ccc(O)c(O)c1)NCCCNCCCCNC(=O)CCc1ccc(O[C@@H]2O[C@H](CO)[C@@H](O)[C@H](O)[C@H]2O)c(O)c1 [formula II]
[2]
  ORAC value: 2.04 ± 0.04 μmol TE/μmol
HEp-2 cells
  CC50: > 100 µM
  MNCC: >100 µM
[1]
  IC50: 25 µM
  SI = CC50/IC50: >4
[3]; experiment a
  PI (100 μM): 35.5 ± 3.8*

## O=C(/C=C/c1ccc(O[C@@H]2O[C@H](CO)[C@@H](O)[C@H](O)[C@H]2O)c(O)c1)NCCCNCCCCNC(=O)CCc1ccc(O)c(O)c1 [formula V]
[2]
  ORAC value: 2.96 ± 0.03 μmol TE/μmol
HEp-2 cells
  CC50: > 100 µM
  MNCC: >100 µM
[1]
  IC50: 25 µM
  SI = CC50/IC50: >4
[3]; experiment a
  PI (100 μM): 35.0 ± 1.3*

## O=C(/C=C\c1ccc(O)c(O[C@@H]2O[C@H](CO)[C@@H](O)[C@H](O)[C@H]2O)c1)NCCCNCCCCNC(=O)CCc1ccc(O[C@@H]2O[C@H](CO)[C@@H](O)[C@H](O)[C@H]2O)c(O)c1 [formula VIII]
[2]
  ORAC value: 3.07 ± 0.02 μmol TE/μmol
HEp-2 cells
  CC50: > 100 µM
  MNCC: >100 µM
[1]
  SI = CC50/IC50: >2
[3]; experiment b
  PI (100 μM): 32.2 ± 2.3*

## O=C(CCc1ccc(O)c(O[C@@H]2O[C@H](CO)[C@@H](O)[C@H](O)[C@H]2O)c1)NCCCCNCCCNC(=O)CCc1ccc(O[C@@H]2O[C@H](CO)[C@@H](O)[C@H](O)[C@H]2O)c(O)c1 [formula XIV]
[2]
  ORAC value: 1.81 ± 0.05 μmol TE/μmol
HEp-2 cells
  CC50: > 100 µM
  MNCC: >100 µM
[1]
  SI = CC50/IC50: >2
[3]; experiment c
  PI (100 μM): 44.6 ± 1.2***

## O=C(/C=C/c1ccc(O)c(O[C@@H]2O[C@H](CO)[C@@H](O)[C@H](O)[C@H]2O)c1)NCCCNCCCCNC(=O)CCc1ccc(O)c(O[C@@H]2O[C@H](CO)[C@@H](O)[C@H](O)[C@H]2O)c1 [formula VII]
[2]
  ORAC value: 1.02 ± 0.02 μmol TE/μmol
HEp-2 cells
  CC50: > 100 µM
  MNCC: >100 µM
[1]
  SI = CC50/IC50: >2
[3]; experiment b
  PI (100 μM): 44.6 ± 2.5***

## O=C(CCc1ccc(O)c(O[C@@H]2O[C@H](CO)[C@@H](O)[C@H](O)[C@H]2O)c1)NCCCCNCCCNC(=O)CCc1ccc(O)c(O[C@@H]2O[C@H](CO)[C@@H](O)[C@H](O)[C@H]2O)c1 [formula XII]
[2]
  ORAC value: 1.23 ± 0.04 μmol TE/μmol
HEp-2 cells
  CC50: > 100 µM
  MNCC: >100 µM
[1]
  SI = CC50/IC50: >2
[3]; experiment b
  PI (100 μM): 33.5 ± 3.0**

## O=C(CCc1ccc(O[C@@H]2O[C@H](CO)[C@@H](O)[C@H](O)[C@H]2O)c(O)c1)NCCCCNCCCNC(=O)CCc1ccc(O[C@@H]2O[C@H](CO)[C@@H](O)[C@H](O)[C@H]2O)c(O)c1 [formula XIII]
[2]
  ORAC value: 2.06 ± 0.04 μmol TE/μmol
HEp-2 cells
  CC50: > 100 µM
  MNCC: >100 µM
[1]
  IC50: 25 µM
  SI = CC50/IC50: >4
[3]; experiment b
  PI (100 μM): 42.5 ± 3.0***

## O=C(CCc1ccc(O)c(O)c1)NCCCCNCCCNC(=O)CCc1ccc(O)c(O[C@@H]2O[C@H](CO)[C@@H](O)[C@H](O)[C@H]2O)c1 [formula XI]
[2]
  ORAC value: 2.07 ± 0.03 μmol TE/μmol
HEp-2 cells
  CC50: > 100 µM
  MNCC: >100 µM
[1]
  IC50: 25 µM
  SI = CC50/IC50: >4
[3]; experiment b
  PI (100 μM): 37.2 ± 2.9***

## O=C(/C=C/c1ccc(O)c(O[C@@H]2O[C@H](CO)[C@@H](O)[C@H](O)[C@H]2O)c1)NCCCNCCCCNC(=O)CCc1ccc(O)c(O)c1 [formula III]
[2]
  ORAC value: 1.87 ± 0.04 μmol TE/μmol
HEp-2 cells
  CC50: > 100 µM
  MNCC: >100 µM
[1]
  IC50: 25 µM
  SI = CC50/IC50: >4
[3]; experiment a
  PI (100 μM): 42.9 ± 1.6***

## O=C(/C=C/c1ccc(O)c(O)c1)NCCCNCCCCNC(=O)CCc1ccc(O)c(O[C@@H]2O[C@H](CO)[C@@H](O)[C@H](O)[C@H]2O)c1 [formula IV]
[2]
  ORAC value: 1.73 ± 0.04 μmol TE/μmol
HEp-2 cells
  CC50: > 100 µM
  MNCC: >100 µM
[1]
  IC50: 25 µM
  SI = CC50/IC50: >4
[3]; experiment a
  PI (100 μM): 42.2 ± 2.1***

## O=C(O[C@@H]1Cc2c(O)cc(O)cc2O[C@@H]1c1cc(O)c(O)c(O)c1)c1cc(O)c(O)c(O)c1 [EGCG, epigallocatechin gallate, reference compound]
[2]
  ORAC value: 1.48 ± 0.02 μmol TE/μmol

## CC12CC3CC(C)(C1)CC(N)(C3)C2 [Memantine, reference compound]
[3]; experiment a
  PI (100 μM): 43.1 ± 0.9***
[3]; experiment b
  PI (100 μM): 42.7 ± 0.9***
[3]; experiment c
  PI (100 μM): 44.2 ± 2.1***
